In patent publication US10544113B2 (priority 2016, dated 2020):
“Also recorded” adds a separate entry of the source. Like-named read-outs stand apart in the source and are kept apart here.

Columns and labels:
mu-opioid receptor (MOR) = mu-opioid receptor (MOR) (Homo sapiens (Human), UniProt P35372); experiment: cell-based
MOR = MOR (Rattus norvegicus, UniProt P33535); experiment: cAMP assay (adenylyl cyclase inhibition) in HEK-MOR cells; format: cell-based
Protocol: (§1) Human embryonic kidney 293 (HEK-293) cells constitutively expressing MOR (HEK-MOR) and DOR (HEK-DOR) (kindly provided by Dr. Ping-Yee Law, University of Minnesota, USA) were cultured in high-glucose Dulbecco's modified Eagle's medium (DMEM, GIBCO) supplemented with 400 μg/mL G418 (Sigma), 2 mM L-glutamine and P/S/F (100 units/mL penicillin, 100 μg/mL streptomycin, 10% fetal bovine serum). Chinese hamster ovary (CHO)-K1 cells, stably expressing hMOR and Gα15 (CHO-K1/MOR/Gα15), were cultured in F12 medium (GIBCO) supplemented with 10 μg/mL Hygromycin B (Invivogen), 20 μg/mL Zeocin (Invivogen) P/S/F (100 units/mL penicillin, 100 μg/mL streptomycin, 10% fetal bovine serum). The cultures were incubated at 37° C. in a humidified 5% CO2 incubator.
Briefly, 2000 HEK-MOR cells or HEK-DOR cells were plated in 10 μL/well of DMEM in 96-well solid bottom white plates and 10 μL/well compound in HBSS in the presence with 1 μM forskolin and 100 μM 3-isobutyl-1-methylxanthine (IBMX). After 30 minutes of incubation at room temperature, 10 μL/well of labeled d2-cAMP and 10 μL/well of anti-cAMP antibody (both diluted in lysis buffer) were added to each well. Two hours later, plates were measured using the FlexStationIII (Molecular Devices Corp.) with excitation at 330 nm and emissions of 620 nm and 665 nm. […]

DOR = experiment: cAMP assay (adenylyl cyclase inhibition) in HEK-DOR cells; format: cell-based; conditions: in the presence of naloxone (20 nM)
Protocol: as §1
Briefly, 2000 HEK-MOR cells or HEK-DOR cells were plated in 10 μL/well of DMEM in 96-well solid bottom white plates and 10 μL/well compound in HBSS in the presence with 1 μM forskolin and 100 μM 3-isobutyl-1-methylxanthine (IBMX). After 30 minutes of incubation at room temperature, 10 μL/well of labeled d2-cAMP and 10 μL/well of anti-cAMP antibody (both diluted in lysis buffer) were added to each well. Two hours later, plates were measured using the FlexStationIII (Molecular Devices Corp.) with excitation at 330 nm and emissions of 620 nm and 665 nm.
To characterize of novel opioid receptor AAMs, the activity and selectivity of compound 58 were tested by inhibiting adenylyl cyclase activity (i.e., cAMP assay).
Opoid receptors inhibit adenylyl cyclase activity through Gi/o family of heterotrimeric G proteins. A cAMP-accumulation assay was performed to determine whether opioid receptor AAMs affect a G protein-dependent signaling pathway.

Sequence of mu-opioid receptor (MOR) (P35372 whole entry): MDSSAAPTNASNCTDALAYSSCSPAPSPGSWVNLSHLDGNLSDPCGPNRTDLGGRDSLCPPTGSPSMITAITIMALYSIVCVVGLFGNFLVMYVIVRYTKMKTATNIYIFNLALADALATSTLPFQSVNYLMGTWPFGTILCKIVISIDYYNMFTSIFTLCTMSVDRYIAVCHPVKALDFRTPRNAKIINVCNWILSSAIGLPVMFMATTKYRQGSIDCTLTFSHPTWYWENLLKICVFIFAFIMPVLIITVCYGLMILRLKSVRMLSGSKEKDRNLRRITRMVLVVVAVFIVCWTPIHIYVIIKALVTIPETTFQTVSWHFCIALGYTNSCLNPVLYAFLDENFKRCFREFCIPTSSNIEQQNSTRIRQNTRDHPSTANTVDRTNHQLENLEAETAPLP
Sequence of MOR (P33535 whole entry, looked up): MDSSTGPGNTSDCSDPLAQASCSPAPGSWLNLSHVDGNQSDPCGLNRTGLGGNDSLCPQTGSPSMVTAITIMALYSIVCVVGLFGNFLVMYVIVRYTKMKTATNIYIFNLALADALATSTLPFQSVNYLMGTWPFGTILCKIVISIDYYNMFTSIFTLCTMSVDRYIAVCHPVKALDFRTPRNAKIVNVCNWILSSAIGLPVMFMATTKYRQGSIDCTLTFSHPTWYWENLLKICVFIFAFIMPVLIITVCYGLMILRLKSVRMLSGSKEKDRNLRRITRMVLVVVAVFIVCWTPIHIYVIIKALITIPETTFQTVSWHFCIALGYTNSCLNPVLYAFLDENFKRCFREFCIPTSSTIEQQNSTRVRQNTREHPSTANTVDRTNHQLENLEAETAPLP

## Cc1cc(C(=O)O)ccc1N1C(=O)CSC1c1ccc(F)cc1 (centres unmarked)
mu-opioid receptor (MOR); co-administrated with naloxone (20 nM), read-out: EC50 of calcium release
  EC50: 1.3 µM
mu-opioid receptor (MOR); combination with CTOP
  activity combined with peptide MOR antagonist CTOP: no activity was observed
mu-opioid receptor (MOR); combined with Cyprodime hydrochloride 500 nM
  AUC: 7893
mu-opioid receptor (MOR); combined with Cyprodime hydrochloride 500 nM, read-out: EC50
  EC50: 5.12 ± 2.52 µM
mu-opioid receptor (MOR); combined with Nalmefene 20 nM
  AUC: 8506
mu-opioid receptor (MOR); combined with Naloxonazine dihydrochloride 20 nM
  AUC: 11819.33
mu-opioid receptor (MOR); combined with Naloxonazine dihydrochloride 20 nM, read-out: EC50
  EC50: 0.642 µM
mu-opioid receptor (MOR); combined with Naltrexone 20 nM
  AUC: 12980.33
mu-opioid receptor (MOR); combined with Naltrexone 20 nM, read-out: EC50
  EC50: 0.63 ± 0.217 µM
mu-opioid receptor (MOR); combined with Samidorphan 10 nM
  AUC: 13179
mu-opioid receptor (MOR); combined with Samidorphan 10 nM, read-out: EC50
  EC50: 5.53 µM
mu-opioid receptor (MOR); combined with Samidorphan 20 nM
  AUC: 14094
mu-opioid receptor (MOR); combined with Samidorphan 20 nM, read-out: EC50
  EC50: 5.27 µM
mu-opioid receptor (MOR); combined with a MOR antagonist
  FLIPR Ca^2+ AUC: 16361
mu-opioid receptor (MOR); combined with a MOR antagonist, read-out: FLIPR Ca^2+ EC50
  EC50: 1.1 µM
mu-opioid receptor (MOR); combined with naltrexone, compared with naloxone
  AAM effect with naltrexone: worked as an AAM of naltrexone, with similar potency but a higher magnitude of efficacy
mu-opioid receptor (MOR); combined with one of the listed opioid antagonists
  calcium release in the presence of an opioid antagonist: induced significant calcium release
mu-opioid receptor (MOR); combined with β-Funaltrexamine hydrochloride 20 nM
  AUC: 8553.5
mu-opioid receptor (MOR); combined with β-Funaltrexamine hydrochloride 20 nM, read-out: EC50
  EC50: 0.346 ± 0.209 µM
mu-opioid receptor (MOR); compound alone, no antagonist
  response on its own (calcium release): did not show responses on their own; also recorded: did not elicit any response on its own
mu-opioid receptor (MOR); morphine CRC with compound at 30, 10, 3.3 μM
  effect on Emax and potency of morphine (PAM/NAM test): neither Emax nor potency of morphine was significantly altered
mu-opioid receptor (MOR); naloxone (25 nM)
  calcium release in the presence of naloxone: induced a significant calcium release
mu-opioid receptor (MOR); naloxone CRC with compound at different concentrations
  effect on concentration-response curve of naloxone (Emax, potency): both Emax and potency of naloxone were altered
MOR; HEK-MOR vs HEK-DOR, with naloxone (20 nM)
  selectivity mu over delta opioid receptor: selective for mu-over delta-opioid receptors
MOR; HEK-MOR, combined with naloxone (20 nM)
  inhibition of adenylyl cyclase activity: significantly inhibited adenylyl cyclase activity
DOR
  effect on adenylyl cyclase activity: produced no effect
